The results in this text go back to patent publication US20130137865A1 (TAISHO PHARMACEUTICAL CO., LTD., priority 2010, published 2013).

pIC50: −log10 of the molar value.

In this assay the target is T1, rat mGlu2 receptor (Rattus norvegicus, UniProt P31421).
T1 construct: expressed in transfected cells; host or cells: CHO cells
T1 sequence (P31421 19-872): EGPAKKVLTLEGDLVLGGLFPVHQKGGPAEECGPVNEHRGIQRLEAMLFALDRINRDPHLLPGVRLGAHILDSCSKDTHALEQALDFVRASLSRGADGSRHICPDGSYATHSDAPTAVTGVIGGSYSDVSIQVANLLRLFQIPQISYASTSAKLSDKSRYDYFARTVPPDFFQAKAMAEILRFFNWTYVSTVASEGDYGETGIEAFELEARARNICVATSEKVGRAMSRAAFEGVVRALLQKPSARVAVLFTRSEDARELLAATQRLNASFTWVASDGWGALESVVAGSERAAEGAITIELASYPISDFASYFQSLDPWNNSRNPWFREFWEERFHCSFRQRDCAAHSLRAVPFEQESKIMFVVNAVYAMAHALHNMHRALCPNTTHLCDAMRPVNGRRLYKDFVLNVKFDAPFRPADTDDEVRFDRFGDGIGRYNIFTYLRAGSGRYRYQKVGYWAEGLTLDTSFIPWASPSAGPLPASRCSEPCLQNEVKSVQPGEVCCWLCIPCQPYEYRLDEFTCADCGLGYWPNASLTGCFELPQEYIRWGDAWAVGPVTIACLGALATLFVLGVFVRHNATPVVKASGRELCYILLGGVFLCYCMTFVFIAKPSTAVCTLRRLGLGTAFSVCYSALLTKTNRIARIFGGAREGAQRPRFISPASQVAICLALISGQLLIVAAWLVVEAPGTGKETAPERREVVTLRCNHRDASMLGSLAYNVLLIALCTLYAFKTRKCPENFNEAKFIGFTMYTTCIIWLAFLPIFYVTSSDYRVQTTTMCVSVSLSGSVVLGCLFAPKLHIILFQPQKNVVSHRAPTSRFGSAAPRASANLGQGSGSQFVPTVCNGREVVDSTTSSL
Briefly: [35S]GTPγS binding test (1), membranes of CHO cells stably expressing rat mGlu2. It is filed as biochemical. The note with it: inhibition of glutamic acid (20 μM)-stimulated specific [35S]GTPγS binding. The procedure: (Preparation of Crude Membrane Fraction of CHO Cells Stably Expressing the Rat Metabotropic Glutamate Receptor (mGlu2))
CHO cells stably expressing the rat mGlu2 receptor were cultured in a 10% dialyzed fetal bovine serum-containing Dulbecco's Modified Eagle's Medium [1% proline, 50 units/mL penicillin, 50 μg/mL streptomycin, and 2 mM L-glutamine (to be added when used)] at 37° C. in 5% CO2. Confluent cells were washed with PBS(−) twice, and were then harvested with a cell scraper. Then, the cells were centrifuged at 4° C. at 1000 rpm for 5 minutes to collect. The obtained precipitate was suspended in a 20 mM HEPES buffer (pH 7.4), and then homogenized with a Teflon® homogenizer. The resultant was centrifuged at 4° C. at 48,000×g for 20 minutes to obtain a precipitate again. The obtained precipitate was washed twice by centrifugation, and was then homogenized with the above-mentioned buffer, so as to obtain a crude membrane fraction. The obtained crude membrane fraction was preserved at −80° C.
The frozen membrane fraction as prepared above was thawed when used, and it was then diluted with a binding test buffer (final concentration: 20 mM HEPES, 100 mM NaCl, 10 mM MgCl2, 8.4 μM GDP, 10 μg/mL saponin, and 0.1% BSA). The compound of the Example was added to a membrane fraction (10 μg protein/assay), and the obtained mixture was then incubated at 30° C. for 20 minutes. Thereafter, glutamic acid (final concentration: 20 μM) and [^35S]GTPγS (final concentration: 0.15 nM) were added to the reaction mixture, and then incubated at 30° C. for 1 hour. After completion of the incubation, the reaction mixture was subjected to filtration over a Whatman GF/C filter that had previously been immersed in a 20 mM HEPES buffer (pH 7.4), and the filter was then washed three times with 300 μL of ice-cold 20 mM HEPES buffer (pH 7.4). A scintillation cocktail was added to the resulting filter, and membrane-bound radioactivity was then measured with a liquid scintillation counter.
The amount of [^35S]GTPγS bound in the case of carrying out the above described reaction in the absence of glutamic acid was defined as non-specific binding. The difference between such non-specific bound and the amount of [^35S]GTPγS bound in the presence of glutamic acid was defined as specific binding. Using non-linear analysis, a concentration-inhibition curve was produced. The concentration of the compound of each Example that caused 50% inhibition (IC50 value) of specific binding was determined from each concentration-inhibition curve.
Background: GTPγS resists hydrolysis and so accumulates on activated G proteins.
The compound `Cn1ncc(-c2nc(-c3cccc(S(N)(=O)=O)c3)no2)c1N1Cc2ccc(C(F)(F)F)cc2C1` [Example 21, 3-(5-{1-Methyl-5-[5-(trifluoromethyl)-1,3-dihydro-2H-isoindol-2-yl]-1H-pyrazol-4-yl}-1,2,4-oxadiazol-3-yl)benzenesulfonamide] gave a pIC50 of 7.83. Next, `Cn1ncc(-c2nc(-c3ccc(S(=O)(=O)O)cc3)no2)c1CCc1ccc(C(F)(F)F)cc1` [Example 15, 4-[5-(1-Methyl-5-{2-[4-(trifluoromethyl)phenyl]ethyl}-1H-pyrazol-4-yl)-1,2,4-oxadiazol-3-yl]benzenesulfonic acid]: 7.40; `COc1cccc(OCc2c(-c3nc(-c4cccc(S(N)(=O)=O)c4)no3)cnn2C)c1` [Example 66, 3-(5-{5-[(3-Methoxyphenoxy)methyl]-1-methyl-1H-pyrazol-4-yl}-1,2,4-oxadiazol-3-yl)benzenesulfonamide]: 8.37.

In turn, `Cn1ncc(-c2nc(-c3cccc(S(N)(=O)=O)c3)co2)c1CCc1ccc(C(F)(F)F)cc1` [Example 10, 3-[2-(1-Methyl-5-{2-[4-(trifluoromethyl)phenyl]ethyl}-1H-pyrazol-4-yl)-1,3-oxazol-4-yl]benzenesulfonamide] gave a pIC50 of 8.00. `Cn1ncc(-c2nc(-c3cccc(S(N)(=O)=O)c3)no2)c1COc1cccc(OC(F)(F)F)c1` [Example 69, 3-[5-(1-Methyl-5-{[3-(trifluoromethoxy)phenoxy]methyl}-1H-pyrazol-4-yl)-1,2,4-oxadiazol-3-yl]benzenesulfonamide] gave a pIC50 of 8.45.

Compound `Cn1ncc(-c2nc(-c3cccc(S(N)(=O)=O)c3)no2)c1COc1ccc(C(F)(F)F)cc1` [Example 37, 3-[5-(1-Methyl-5-{[4-(trifluoromethyl)phenoxy]methyl}-1H-pyrazol-4-yl)-1,2,4-oxadiazol-3-yl]benzenesulfonamide] showed a pIC50 of 8.89.

One may read the pIC50 as the negative decadic logarithm of the IC50, by convention in mol/L. A lower pIC50 goes with a large IC50.
